These results are taken from PubChem BioAssay AID687005 (Broad Institute, 2013).

Records with an inconclusive call do not appear. Activity calls are given as the source filed them.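 How the source made its calls: active means Compounds that reduce signal, with fitted half-maximal dose at or under twice the top valid tested dose; inconclusive means Poor fit, or flat curve losing 30 to 70% of signal; inactive means Potency past limit, flat within 30%, or opposite direction.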

A short description of the first test: viability loss in HEK293T cells – cell-based, ATP luminescence, cherry-pick samples, cytotoxicity control, dose response (AID 687005). Particulars: HEK293T viability, ATP luminescence (CellTiter-Glo), 48 h; at 23.5 µM (top of the series). (In ATP-based viability assays light output follows the ATP content of the culture.)
As for `CCC(=O)N1[C@H](CO)[C@@H](c2ccc(-c3cccnc3)cc2)[C@@H]1CN(C)C(C)=O`, the activity change, negative = cytotoxicity is 3.73% (inactive).

Consider `C[C@@H]1CN([C@H](C)CO)C(=O)c2cc(NS(=O)(=O)c3cn(C)cn3)ccc2O[C@H]1CN(C)C(=O)Nc1cccc2ccccc12`, for which the activity change, negative = cytotoxicity is 17.8% (inactive). Same read-out and setting: in the case of `C[C@H](CO)N1C[C@H](C)[C@@H](CN(C)S(=O)(=O)c2ccc(Cl)cc2)Oc2c(NS(=O)(=O)c3ccc(F)cc3)cccc2C1=O` it was -1.86% (inactive).

Still in this test, the particulars now being: HEK293T viability, ATP luminescence (CellTiter-Glo), 48 h; at 26 µM (top of the series).
On to `O=C(c1cccnc1)N1C[C@H]2[C@@H](c3ccccc31)[C@@H](CO)N2C(=O)Nc1ccc(F)cc1`, for which the activity change, negative = cytotoxicity is -19.7% (inactive).

`CO[C@H]1CN(C)C(=O)c2cc(NC(=O)c3ccccc3F)ccc2OC[C@H](C)N(CC2CCOCC2)C[C@H]1C`: the activity change, negative = cytotoxicity was 57% (inactive). On to `Cc1cccc(C)c1NC(=O)C(C)N1CCCCC1` (centres undefined), for which the activity change, negative = cytotoxicity was 6.43% (inactive). Same read-out and setting: in the case of `COCC#Cc1cnc2c(c1)C(=O)N([C@@H](C)CO)C[C@@H](C)[C@@H](CN(C)C(=O)C1CC1)O2` it was -14.4% (inactive); in that of `COc1ccc(-n2ncc3c(SCC(=O)OC(C)C)ncnc32)cc1`, -5.94% (inactive); in that of `Cc1ccc(C)c(NC(=O)C2(C)CCN2C(=O)C(C)C)c1` (centres undefined), -19.7% (inactive).

Regarding `O=C(NC1CCCC1)N1CCCCN2[C@H](CO)[C@@H](c3ccc(-c4cncnc4)cc3)[C@H]2C1`, the activity change, negative = cytotoxicity was 41.2% (inactive). The same measure, in the same setting: to `COCC(=O)NC[C@H]1N[C@H](CO)[C@H]1c1ccc(C2=CCCC2)cc1` belongs -13.3% (inactive); to `CC(C)C#Cc1ccc([C@@H]2[C@H](CO)N3CCCCN(C(=O)c4ccc5c(c4)OCO5)C[C@@H]23)cc1`, 28.2% (inactive); to `Cc1noc(C)c1NC(=O)Nc1ccc2c(c1)C(=O)N([C@H](C)CO)C[C@@H](C)[C@H](CN(C)C(=O)Nc1ccc(F)cc1)OCCCC[C@@H](C)O2`, -26.1% (inactive).

As for `O=C(C[C@H]1CC[C@H]2[C@@H](COC[C@H](O)CN2C(=O)Nc2ccc3c(c2)OCO3)O1)N1CCN(c2ccccc2)CC1`, the activity change, negative = cytotoxicity was 5.63% (inactive).

`C[C@H](NC(=O)C[C@@H]1C=C[C@H](NC(=O)CN2CCOCC2)[C@@H](CO)O1)c1ccccc1`: the activity change, negative = cytotoxicity is 18.6% (inactive). On to `COCC(=O)N1[C@H](C#N)[C@H](c2ccc(C#Cc3ccccc3F)cc2)[C@H]1CO`, for which the activity change, negative = cytotoxicity was 8.29% (inactive).

`CO[C@@H]1CC[C@@H]2CCOc3c(C#N)cccc3C(=O)N(C)C[C@H](c3ccccc3)CC(=O)N(C)C[C@@H]1O2`: the activity change, negative = cytotoxicity is -28.5% (inactive).

`CNC[C@@H]1OCCCC[C@@H](C)Oc2ccc(NC(=O)NC(C)C)cc2C(=O)N([C@@H](C)CO)C[C@H]1C`: the activity change, negative = cytotoxicity is 34.5% (inactive).

On to `O=C(C[C@H]1C=C[C@H](NC(=O)C2CCC2)[C@@H](CO)O1)NC1CCC1`, for which the activity change, negative = cytotoxicity is -2.82% (inactive). For the compound `COc1ccccc1-c1ccc2c(c1)O[C@@H](CN(C)C(=O)c1cccnc1)[C@H](C)CN([C@@H](C)CO)S2(=O)=O`, the activity change, negative = cytotoxicity was -38% (inactive). Consider `COC(=O)N(C)C[C@H]1OCc2cn(nn2)CCCC(=O)N([C@H](C)CO)C[C@@H]1C`, for which the activity change, negative = cytotoxicity was -11% (inactive).

`COc1cccc(S(=O)(=O)N2C[C@@H](O)COC[C@H]3O[C@H](CC(=O)Nc4ccccc4)CC[C@@H]32)c1`: the activity change, negative = cytotoxicity is -41.6% (inactive).

Take `CC(=O)N(C)C[C@H]1Oc2cc(C#Cc3ccc(F)cc3)ccc2S(=O)(=O)N([C@H](C)CO)C[C@@H]1C`: the activity change, negative = cytotoxicity is 53% (inactive).

Staying with this test, now noted: HEK293T viability, ATP luminescence (CellTiter-Glo), 48 h; at 46 µM (top of the series).
Regarding `CCCC(=O)N1CCC1(C)C(=O)Nc1ccc(C)cc1` (centres undefined), the activity change, negative = cytotoxicity is -12.7% (inactive).
